Where “and” joins values, the source holds several entries; their conditions need not be identical. Identical values can stand only once. Entries after “also recorded” stand apart in the source; their conditions may differ. Like-named read-outs stand apart in the source and are kept apart here. Some results are limits rather than exact numbers.

Test in all cases: FRET functional assay (agonist/antagonist) using LGIC-CNiFERs
Format in all cases: cell-based

One test has as its target T1, 5HT3A receptors (Mus musculus, UniProt P23979).
T1 construct: expressed in transfected cells; host or cells: HEK293 cells co-expressing TN-XXL
T1 sequence (P23979 24-489): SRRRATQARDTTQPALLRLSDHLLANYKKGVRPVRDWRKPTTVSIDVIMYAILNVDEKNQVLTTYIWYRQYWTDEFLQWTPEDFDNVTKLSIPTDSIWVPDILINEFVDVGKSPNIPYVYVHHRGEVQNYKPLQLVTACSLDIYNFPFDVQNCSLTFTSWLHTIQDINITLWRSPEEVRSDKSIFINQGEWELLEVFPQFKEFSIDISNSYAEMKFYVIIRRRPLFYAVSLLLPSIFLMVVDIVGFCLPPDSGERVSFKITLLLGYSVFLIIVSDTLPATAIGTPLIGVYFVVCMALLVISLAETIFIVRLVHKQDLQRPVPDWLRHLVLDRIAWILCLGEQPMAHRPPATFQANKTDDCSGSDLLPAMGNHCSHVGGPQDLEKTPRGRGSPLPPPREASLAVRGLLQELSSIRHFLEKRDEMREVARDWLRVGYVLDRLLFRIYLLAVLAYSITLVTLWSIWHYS
The settings on record: for EC50: * partial agonist, read-out: Agonist EC50 ± SD, 5HT3A; for Functional properties at 5HT3A receptors (agonist / antagonist, type): functional screening and characterization.

The target of another test is T2, α4β2-nAChRs (Homo sapiens, UniProt P17787+P43681).
T2 construct: expressed in transfected cells; host or cells: HEKtsA201 cells co-expressing TN-XXL
The settings on record: for EC50: read-out: EC50 ± SD, α4β2; for Functional properties at α4β2-nAChRs (agonist / antagonist, type): functional screening and characterization.

For the next test, the target named is T3, α7-nAChRs (Homo sapiens, UniProt P36544).
T3 construct: expressed in transfected cells; host or cells: HEKtsA201 cells co-expressing TN-XXL

The mark [1] stands for this setting: >10 = did not pass initial screen.
Where [2] appears, read: in presence of 10 μM PNU-120596, * partial agonist, >10 = did not pass initial screen, read-out: Agonist EC50 ± SD, α7.

T2 sequence (P43681 29-627 limits assumed): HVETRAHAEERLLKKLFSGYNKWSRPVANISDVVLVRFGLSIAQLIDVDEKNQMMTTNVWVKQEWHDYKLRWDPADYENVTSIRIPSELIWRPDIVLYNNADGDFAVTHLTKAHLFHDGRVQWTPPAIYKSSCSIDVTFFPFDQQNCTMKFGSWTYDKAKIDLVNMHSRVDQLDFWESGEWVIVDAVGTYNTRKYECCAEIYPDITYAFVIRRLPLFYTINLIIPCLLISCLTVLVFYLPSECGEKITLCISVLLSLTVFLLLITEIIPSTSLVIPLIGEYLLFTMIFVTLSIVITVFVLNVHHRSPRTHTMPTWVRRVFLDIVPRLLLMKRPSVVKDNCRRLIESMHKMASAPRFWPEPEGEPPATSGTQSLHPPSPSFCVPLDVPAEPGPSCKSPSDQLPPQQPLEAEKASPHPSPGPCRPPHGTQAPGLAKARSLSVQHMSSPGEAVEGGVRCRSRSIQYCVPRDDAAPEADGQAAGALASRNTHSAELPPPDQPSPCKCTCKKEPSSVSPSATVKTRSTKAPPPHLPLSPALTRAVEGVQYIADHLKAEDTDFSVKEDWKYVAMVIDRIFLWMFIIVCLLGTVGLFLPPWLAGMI
T2 sequence (P17787 26-502): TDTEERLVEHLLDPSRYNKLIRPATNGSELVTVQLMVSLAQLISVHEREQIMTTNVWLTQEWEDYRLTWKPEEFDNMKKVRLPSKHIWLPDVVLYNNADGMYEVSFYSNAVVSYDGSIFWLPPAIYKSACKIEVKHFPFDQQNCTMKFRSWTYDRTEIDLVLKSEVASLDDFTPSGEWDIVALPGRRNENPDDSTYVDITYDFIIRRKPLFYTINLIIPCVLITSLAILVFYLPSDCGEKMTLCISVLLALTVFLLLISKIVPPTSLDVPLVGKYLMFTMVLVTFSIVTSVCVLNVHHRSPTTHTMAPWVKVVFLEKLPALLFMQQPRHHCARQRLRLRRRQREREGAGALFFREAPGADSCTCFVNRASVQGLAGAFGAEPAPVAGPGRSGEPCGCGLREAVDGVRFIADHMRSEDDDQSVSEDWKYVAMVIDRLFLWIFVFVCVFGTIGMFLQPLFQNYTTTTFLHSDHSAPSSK
T3 sequence (P36544 23-502): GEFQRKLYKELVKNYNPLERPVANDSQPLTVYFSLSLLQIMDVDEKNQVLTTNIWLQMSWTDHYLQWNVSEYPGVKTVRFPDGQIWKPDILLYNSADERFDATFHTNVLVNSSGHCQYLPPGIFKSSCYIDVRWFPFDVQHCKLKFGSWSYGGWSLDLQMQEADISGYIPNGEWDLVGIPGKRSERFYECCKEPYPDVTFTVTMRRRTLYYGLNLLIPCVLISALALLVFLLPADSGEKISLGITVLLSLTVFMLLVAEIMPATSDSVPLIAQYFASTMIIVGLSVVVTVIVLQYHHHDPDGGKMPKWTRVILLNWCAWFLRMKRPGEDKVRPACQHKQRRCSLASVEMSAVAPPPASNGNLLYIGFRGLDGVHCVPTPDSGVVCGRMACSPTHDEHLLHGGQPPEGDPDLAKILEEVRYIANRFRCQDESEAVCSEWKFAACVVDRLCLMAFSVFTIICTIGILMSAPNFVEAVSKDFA

Take `c1cc2cc(-c3cn(C4CN5CCC4CC5)nn3)ccc2[nH]1` (stereo not drawn) [IND8, 5-((Quinuclid-3-yl)-1H-1,2,3-triazol-4-yl)-1H-indole]: the “5HT3A agonistic properties relative to α7-nAChR agonistic effect” value on 5HT3A receptors was “seven fold lower”. The EC50 is 210 nM on 5HT3A receptors (setting [1]); above 10000 nM on α4β2-nAChRs (setting [1]); 30 nM and 28 nM on α7-nAChRs (setting [2]). Besides, the “Functional properties at 5HT3A receptors (agonist / antagonist, type)” value on 5HT3A receptors is “agonistic properties; also recorded: partial agonist”. Also, the Kd on α4β2-nAChRs (competitive antagonist (^C), >10 = did not pass initial screen, vs (±)-epibatidine, read-out: Antagonist KA ± SD, α4β2) is above 10000 nM. Further, at α4β2-nAChRs, the “Functional properties at α4β2-nAChRs (agonist / antagonist, type)” value is on record as “did not elicit agonist or antagonist properties”. Also, on α7-nAChRs, the “Fold increase in α7-nAChR agonist potency over lead compound TTIn-1” value stood at 20 fold.

In the case of `O=C(N[C@H]1CN2CCC1CC2)c1ccc(Cl)cc1` [PNU-282987, reference compound], the Kd was 1200 nM on 5HT3A receptors (Antagonist KA ± SD, 5HT3A, competitive antagonist (^C), >10 = did not pass initial screen, vs 5-HT) and above 10000 nM at α4β2-nAChRs (Antagonist KA ± SD, α4β2, competitive antagonist (^C), >10 = did not pass initial screen, vs (±)-epibatidine). For the same compound, the EC50 at α4β2-nAChRs (setting [1]) is above 10000 nM; on α7-nAChRs (Agonist EC50 ± SD, α7), 110 ± 10 nM.

With `Oc1ccc(-c2cn(C3CN4CCC3CC4)nn2)cc1` (stereo not drawn) [QND8, 3-(4-hydroxyphenyl-1,2,3-triazol-1-yl) quinuclidine], the EC50 at 5HT3A receptors (setting [1]) was 900 ± 90 nM; on α7-nAChRs (setting [2]), 40 nM and 37 nM. The “Functional properties at 5HT3A receptors (agonist / antagonist, type)” value on 5HT3A receptors is 5HT3A receptor agonist properties. The “Antagonist KA ± SD, α4β2” value on α4β2-nAChRs (competitive antagonist (^C), >10 = did not pass initial screen, vs (±)-epibatidine) was 6.2 ± 1.7^C μM. The “Functional properties at α4β2-nAChRs (agonist / antagonist, type)” value at α4β2-nAChRs is “competitive antagonism”. Further, the “Fold increase in α7-nAChR agonist potency over lead compound TTIn-1” value on α7-nAChRs worked out at 20 fold.

Broadly, the EC50 is the concentration needed to bring the measured effect to its halfway point.

Source of the values: US20180244653A1, “SELECTIVE ALPHA-7 NICOTINIC RECEPTOR AGONISTS AND METHODS FOR MAKING AND USING THEM” (THE REGENTS OF THE UNIVERSITY OF CALIFORNIA, priority 2015, published 2018).
